Results taken from patent US9469665B2, “Compound having lysophosphatidylserine receptor function modulation activity” (THE UNIVERSITY OF TOKYO, priority 2013, dated 2016).
Structures can show the parent of a compound that is named as a salt.

Row | SMILES | melting point [°C]
1 | CCCCCCCC/C=C\CCCCCCCC(=O)OC[C@@H](COCC)OP(=O)(O)OC[C@H](N)C(=O)O (as salt: TFA) [Example 6, (9Z)-Octadeca-9-enoic acid (2R)-2-[((2S)-2-amino-2-carboxy-ethoxy)-hydroxy-phosphoryloxy]-3-ethoxypropyl ester] | 130.2 to 131
2 | CCCCCCCCCCCOc1ccccc1CCC(=O)OC[C@H]1OCCC[C@@H]1OP(=O)(O)OC[C@H](N)C(=O)O (as salt: TFA) [Example 21, (2S)-2-amino-3-(hydroxyl-{(2R,3S)-2-[3-(2-undecyloxy-phenyl)-propionyloxymethyl]-tetrahydro-pyran-3-yloxy}-phosphoryloxy)-propionic acid] | 70 to 86
3 | CCCCCCCCCCCOc1ccc(C(C)(C)C)cc1CCC(=O)O[C@H]1COCC[C@@H]1OP(=O)(O)OC[C@H](N)C(=O)O (as salt: TFA) [Example 12, (2S)-2-amino-3-({(3S,4S)-3-[3-(5-tert-butyl-2-undecyloxy-phenyl)-propionyloxy]-tetrahydro-pyran-4-yloxy}-hydroxy-phosphoryloxy)-propionic acid] | 144 to 144.5
4 | CCCCCCCC/C=C\CCCCCCCC(=O)OC[C@@H](COC)OP(=O)(O)OC[C@H](N)C(=O)O (as salt: TFA) [Example 4, (9Z)-Octadeca-9-enoic acid (2R)-2-[((2S)-2-amino-2-carboxy-ethoxy)-hydroxy-phosphoryloxy]-3-methoxy-propyl ester] | 192.5 to 196
5 | CCCCCCCC/C=C\CCCCCCCC(=O)OC[C@H]1OCCC[C@@H]1OP(=O)(O)OC[C@H](N)C(=O)O (as salt: TFA) [Example 20, (9Z)-Octadeca-9-enoic acid (2R,3S)-3-[((2S)-2-amino-2-carboxy-ethoxy)-hydroxy-phosphoryloxy]-tetrahydro-pyran-2-ylmethyl ester] | 70 to 80
6 | CCCCCCCCCCCOc1ccccc1CCC(=O)O[C@@H]1COCC[C@H]1OP(=O)(O)OC[C@H](N)C(=O)O (as salt: TFA) [Example 9, (2S)-2-amino-3-(hydroxyl-{(3R,4R)-3-[3-(2-undecyloxy-phenyl)-propionyloxy]-tetrahydropyran-4-yloxy}-phosphoryloxy)-propionic acid] | 122 to 123
7 | CCCCCCCC/C=C\CCCCCCCC(=O)OC[C@@H](COCc1ccccc1)OP(=O)(O)OC[C@H](N)C(=O)O (as salt: TFA) [Example 7, (9Z)-Octadeca-9-enoic acid (2R)-2-[((2S)-2-amino-2-carboxy-ethoxy)-hydroxy-phosphoryloxy]-3-benzyloxy-propyl ester] | 118.5 to 122
8 | C[C@H](OP(=O)(O)OC[C@H]1OCCC[C@H]1OC(=O)CCc1ccccc1OCc1cccc(Oc2ccccc2)c1)[C@H](N)C(=O)O (as salt: TFA) [Example 28, (2S,3S)-2-amino-3-[hydroxyl-((2R,3R)-3-{3-[2-(3-phenoxy-benzyloxy)-phenyl]-propionyloxy}-tetrahydro-pyran-2-ylmethoxy)-phosphoryloxy]-butyric acid] | 62 to 72
9 | N[C@@H](COP(=O)(O)OC[C@H]1OCCC[C@H]1OC(=O)CCc1ccccc1OCc1cccc(Oc2ccccc2)c1)C(=O)O (as salt: TFA) [Example 18] | 65 to 75
10 | C[C@H](OP(=O)(O)O[C@@H]1CCCO[C@@H]1COC(=O)CCc1ccccc1OCc1cccc(Oc2ccccc2)c1)[C@H](N)C(=O)O (as salt: TFA) [Example 30, (2S,3S)-2-amino-3-[hydroxy-((2R,3R)-2-{3-[2-(3-phenoxy-benzyloxy)-phenyl]-propionyloxymethyl}-tetrahydro-pyran-3-yloxy)-phosphoryloxy]-butyric acid] | 52 to 60
11 | C[C@H](COC(=O)CCc1ccccc1OCc1cccc(Oc2ccccc2)c1)OP(=O)(O)OC[C@H](N)C(=O)O (as salt: TFA) [Example 3, (2S)-2-amino-3-[hydroxyl-((1R)-1-methyl-2-{3-[2-(3-phenoxy-benzyloxy)-phenyl]-propionyloxy}-ethoxy)-phosphoryloxy]-propionic acid] | 143.5 to 144.5
12 | C[C@H](OP(=O)(O)O[C@H]1CCCO[C@@H]1COC(=O)CCc1ccccc1OCc1cccc(Oc2ccccc2)c1)[C@H](N)C(=O)O (as salt: TFA) [Example 29, (2S,3S)-2-amino-3-[hydroxy-((2R,3S)-2-{3-[2-(3-phenoxybenzyloxy)-phenyl]-propionyloxymethyl}-tetrahydro-pyran-3-yloxy)-phosphoryloxy]-butyric acid] | 42 to 54
13 | CCCCCCCCCCCOc1ccccc1CCC(=O)O[C@H]1COCC[C@@H]1OP(=O)(O)OC[C@H](N)C(=O)O (as salt: TFA) [Example 11, (2S)-2-amino-3-(hydroxy-{(3S,4S)-3-[3-(2-undecyloxy-phenyl)-propionyloxy]-tetrahydro-pyran-4-yloxy}-phosphoryloxy)-propionic acid] | 132.8 to 134.8
14 | CCCCCCCC/C=C\CCCCCCCC(=O)OC[C@H](COC)OP(=O)(O)OC[C@H](N)C(=O)O (as salt: TFA) [Example 5, (9Z)-Octadeca-9-enoic acid (2S)-2-[((2S)-2-amino-2-carboxy-ethoxy)-hydroxy-phosphoryloxy]-3-methoxy-propyl ester] | 149 to 150.5
